Results on 1 compound are retold here after patent publication US20240058315A1, “Pyridine and Pyrazine derivative for the Treatment of CF, COPD, and Bronchiectasis” (NOVARTIS AG, priority 2019, published 2024).

Entries after “also recorded” stand apart in the source; their conditions may differ.

The test system of series [1] is Any Pathogen (Haemophilus parainfluenza, Haemophilus influenza, Pseudomonas aeruginosa, Moraxella, Streptococcus pneumonia) in sputum. Put plainly: Phase II study in COPD patients: sputum microbiology, any pathogen. Format: in vivo. To be noted: for patients colonized, n (%) / patients with a positive culture, n (%): Any Pathogen; for patients colonized, n (%): all patients in sputum analysis; for patients with a positive culture, n (%): only subjects with a pathogen at baseline; for percent of patients who cleared colonization: patients with culture positive sputum at Baseline. The procedure: A double-blinded, randomized, placebo-controlled, non-confirmatory, and multi-center, fixed-dose study of Compound A in COPD patients was conducted to assess efficacy, safety, tolerability, pharmacokinetics (PK), and pharmacodynamics (PD). Patients were randomized and stratified by smoking status (former vs current smokers). The double-blind placebo-controlled treatment period was 28 days (Day 1 to Day 28) and included visits on Days 1, 14 and 28. Eligible patients were randomized in a 2:1 ratio to receive 300 mg b.i.d. of Compound A or matching placebo for 28 consecutive days. Of note, the first 4 patients enrolled randomized in this study received 450 mg b.i.d. of Compound A or placebo, prior to an amendment reducing the dose and thereafter the dose was reduced to 300 mg b.i.d. of Compound A. The single-blind placebo-controlled follow-up period was 28 days. The follow-up period included a visit on Day 29 for key primary and secondary objective efficacy assessments, weekly follow-up contact via telephone, and an End-of-Study (EOS) visit on Day 56. Number of patients (planned and analyzed): Ninety two (92) patients were randomized into the study. The majority of the patients (N=78, 84.8%) completed the study as planned. A total of 14 patients discontinued the study (N=2 from placebo group and N=12 from Compound A group). The reasons for discontinuations include adverse events, protocol deviations (failure to meet inclusion/exclusion at Baseline), patient decision, abnormal laboratory values (positive drug screen) and administrative problems (patient unable to return to site for visits).
Spontaneous sputum was collected from patients and used to quantify colony forming units (CFUs) as a potential efficacy marker. The collected sputum samples were cultured for the following specific bacteria: Haemophilus parainfluenza, Haemophilus influenza, Pseudomonas aeruginosa, Moraxella, and Streptococcus pneumonia. In the event of bacterial growth for one or more of the above five pathogens, then the test result was reported, including the quantitative growth. In order to be included in the sputum analysis, a patient must have provided a sufficient sputum sample at baseline and at least one other visit (Day 14, Day 29 or EOS).
A decrease in airway bacterial colonization as detected in the sputum is considered improvement. In Table 4, the frequency (n, %) of patients was reported by treatment with Compound A and type of bacteria. Within each treatment group, the percentage was calculated as number of patients who were colonized with bacteria divided with total number of patients who produced a sputum sample at that time point.
For the treatment effect a summary table, the frequency (n, %) of patients with a positive culture was reported by each treatment. Only patients with a positive culture at baseline are included in this analysis. Percentage was calculated as number of patients who are colonized (i.e., have at least one culture resulted) divided with total number of patients who produced a sputum sample at each visit, by treatment.

The subject of a further series is COPD patients. The series can be described thus: COPD PoC study (study 2): lung function (LCI, FEV1, spirometry). Format: in vivo, human. As to the method:
Patients were randomized and stratified by smoking status (former vs current smokers). The double-blind placebo-controlled treatment period was 28 days (Day 1 to Day 28) and included visits on Days 1, 14 and 28. Eligible patients were randomized in a 2:1 ratio to receive 300 mg b.i.d. of Compound A or matching placebo for 28 consecutive days. Of note, the first 4 patients enrolled randomized in this study received 450 mg b.i.d. of Compound A or placebo, prior to an amendment reducing the dose and thereafter the dose was reduced to 300 mg b.i.d. of Compound A. The single-blind placebo-controlled follow-up period was 28 days. The follow-up period included a visit on Day 29 for key primary and secondary objective efficacy assessments, weekly follow-up contact via telephone, and an End-of-Study (EOS) visit on Day 56.

Series [2] can be described thus: Pharmacokinetics of Compound A (half-life, trough/AUC relation). Format: in vivo.
The next series deals with OATP1B3 (Homo sapiens (Human), UniProt Q9NPD5). The series can be described thus: in vitro inhibition of OATP1B3. Format: in vitro ADME.
Chain of OATP1B3 (Q9NPD5 whole entry): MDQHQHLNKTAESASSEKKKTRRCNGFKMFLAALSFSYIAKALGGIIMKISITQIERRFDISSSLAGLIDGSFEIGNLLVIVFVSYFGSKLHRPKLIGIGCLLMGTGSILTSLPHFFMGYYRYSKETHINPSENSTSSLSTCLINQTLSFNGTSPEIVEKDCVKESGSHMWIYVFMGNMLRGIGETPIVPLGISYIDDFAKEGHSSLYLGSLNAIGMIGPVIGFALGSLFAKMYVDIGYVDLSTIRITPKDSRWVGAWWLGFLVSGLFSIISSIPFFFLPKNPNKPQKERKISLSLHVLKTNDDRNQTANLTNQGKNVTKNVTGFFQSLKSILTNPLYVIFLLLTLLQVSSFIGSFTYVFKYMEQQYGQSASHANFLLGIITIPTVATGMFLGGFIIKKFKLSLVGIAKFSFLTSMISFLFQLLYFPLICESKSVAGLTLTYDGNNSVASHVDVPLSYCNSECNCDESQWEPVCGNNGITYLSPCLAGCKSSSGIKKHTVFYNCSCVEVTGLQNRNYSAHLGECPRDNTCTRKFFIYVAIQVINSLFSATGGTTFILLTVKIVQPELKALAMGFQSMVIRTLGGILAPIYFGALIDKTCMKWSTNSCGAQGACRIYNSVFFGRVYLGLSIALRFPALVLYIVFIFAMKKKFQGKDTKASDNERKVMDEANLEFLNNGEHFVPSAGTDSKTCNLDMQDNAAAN

On to `COc1nc(C(=O)NC[C@](C)(O)C(F)(F)F)c(N)cc1C(F)(F)F` (single isomer, unassigned) [Example 5], for which the “patients colonized, n (%)” value in series [1] (Baseline) is listed as 26 (57.8) n (%); in series [1] (D14), 23 (53.5) n (%); in series [1] (D29), 23 (54.8) n (%); in series [1] (EOS) it was 17 (40.5) n (%). Also, in series [1] (Baseline, sputum analysis set), the “bacterial colonization, percent of patients” value amounted to 58%. In addition, the figures for the “patients with a positive culture, n (%)” value in series [1] (D14), in series [1] (D29) and in series [1] (EOS) were 19 (76.0) n (%), 18 (75.0) n (%) and 14 (58.3) n (%), respectively. Also, the “percent of patients who cleared colonization” value in series [1] (Day 29, placebo 15%) worked out at 25%; in series [1] (EOS, placebo 23%), 42%. For the same compound, the “percent of patients colonized” value in series [1] (Day 29, sputum analysis set, placebo 70%) worked out at 55%; in series [1] (EOS, sputum analysis set, placebo 74%), 41%. Besides, the “LCI, pre-bronchodilator FEV1 and post-bronchodilator FEV1, mean change from baseline” value in the series with COPD patients (Day 14, COPD patients) was “evidence of improvement”. Moreover, in the series on COPD patients (Day 29, 300 mg bid 28 days, COPD patients), the “pre- and post-bronchodilator FVC, IC, % FEF25-75 compared to placebo” value is reported as “supportive evidence of improvement”. In addition, the “estimated difference (Compound A - placebo) in mean change from baseline post-bronchodilator FEV1” value in the series on COPD patients (Day 29, 300 mg bid 28 days, COPD, 90% CI −0.02, 0.14, p-value=0.100) was 0.06 L. For the same compound, in the series with COPD patients (Day 29, 300 mg bid 28 days, COPD, 90% CrI −0.03, 0.13, 84% probability better than placebo), the “posterior difference (Compound A - placebo) in mean change from baseline pre-bronchodilator FEV1” value is given as 0.05 L. For the same compound, in the series with COPD patients (Day 29, 300 mg bid 28 days, COPD, 90% CrI −0.24, 0.79, 19% probability better than placebo), the “posterior difference (Compound A - placebo) in mean change from baseline LCI” value is reported as 0.28. Also, the “efficacy results for FEV1, sweat chloride, fibrinogen, spirometry and lung volume measurements” value in the series on COPD patients (EOS, 28 days after the last dose, COPD patients) is “returned to baseline”. In addition, the “lung function (FEV1)” value in the series on COPD patients (patients with COPD, four weeks of treatment, listed as Compound A) is on record as “significant improvement; also recorded: statistically important improvement”. Further, the half-life in series [2] (in vivo) lay within 10 to 16 h. Further, the “trough concentration (Cmin,ss) corresponding to AUC0-24 h,ss of 91,700 ng*h/ml” value in series [2] (regression of Cmin,ss against AUC0-24 h,ss) is 3000 ng/mL. The “inhibition of OATP1B3” value at OATP1B3 is reported as “Weak in vitro inhibition”.
